Consider three substances from article PMC10540216, “Activity Guided Azide-methyllysine Photo-trapping for Substrate Profiling of Lysine Demethylases” (Journal of the American Chemical Society, 2023).

Entries after “also recorded” stand apart in the source; their conditions may differ. Where no end group is shown, it is not given here. [ ]: non-standard residue; d: D form. Lys(Me3) = C[N+](C)(C)CCCC[C@H](N)C(=O)O

The test system of one assay is KDM4C-I73AzF. Kind of assay: Photo-crosslinking with TAMRA peptides, in-gel fluorescence. The conditions noted are these: 10 µM peptide, 20 µM protein, UV irradiation. In kind it is binding, human. The method, then:
(§1) 10. Photo-crosslinking experiment with peptides and in-gel fluorescence For peptide photo-crosslinking experiments, 10 µM TAMRA-labeled H3K9me0 or H3K9me3 […]
(§2) mM ascorbic acid, 50 mM tris pH 8.0, 50 μM Fe(NH4)2(SO4)2, 200 µM 2OG. Samples were […]
(§3) 365nm 100% irradiated) for 30 minutes at 4 °C on ice. Negative controls were kept in dark on ice for the full 30 minutes. 10 µL of sample was mixed with 5 µL 4X Laemmli dye (Biorad #1610747) and separated on a 4-12 % Criterion XT precast gel (Bio-Rad Laboratories). Gels were imaged on a ChemiDoc MP Imaging system using TAMRA fluorophore excitation wavelength (Emission filter 605/50, Light: green Epi illumination). The gel was subsequently stained with Coomassie brilliant blue R-250 staining solution to confirm the presence of proteins in all the samples. […]

The test system of another assay is KDM4D-L75AzF. Described as above. The conditions noted are these: 10 µM peptide, 20 µM protein, UV irradiation. In kind it is binding, human. The method, then:
as §1, §2, §3

The test system of assay [1] is catalytically dead AzF variants of KDM4A. Described as above. In kind it is binding, human. The note with it: majority of the catalytically dead AzF variants, 10 µM peptide, 20 µM protein, 365 nm UV, 30 minutes. As to the method:
as §1, §2, §3

The subject of the next assay is wild-type KDM4A. The description is as above. The note with it: 10 µM peptide, 20 µM protein, 365 nm UV, 30 minutes at 4 °C. In kind it is binding, human. As to the method:
as §1, §2, §3

The next assay deals with KDM4A-I71AzF. The description is as above. Format: binding, human.
In a further assay the test system is KDM4E-L72AzF. The description is as above. In kind it is binding. The conditions noted are these: 10 µM peptide, 20 µM protein, UV irradiation. As to the method:
as §1, §2, §3

The test system of another assay is DOT1L. The assay is described as follows: Methylation of eIF4A3-K374 peptides by KMT (MALDI-TOF MS). Format: biochemical. The conditions noted are these: 20 µM KMT, 10 µM peptide, 200 µM SAM. As to the method: (§4) expression constructs in pET28a or pET 28-MHL were obtained from Addgene: CAMKMT […]
(§5) (Addgene #60091) and METTL21C (Addgene #60100). Plasmids were transformed into E. Coli BL21 (DE3) competent cells (Invitrogen) using appropriate resistant antibiotic. A single colony was picked up and grown overnight at 37 °C in 10 mL of Luria-Bertani (LB) broth in the presence of 50 μg/mL kanamycin and 35 μg/mL chloramphenicol. The culture was diluted 100-fold and allowed to grow at 37 °C to an optical density (OD600) of a minimum of 0.8, and protein expression was induced overnight at 17 °C with 0.5 to 1.0 mM IPTG in an Innova 44® Incubator shaker (New Brunswick Scientific). Proteins were purified as follows: harvested cells were resuspended in 15 mL lysis buffer (50 mM Tris-HCl pH 8.0, 200 mM NaCl, 5 mM β-mercaptoethanol, 10% glycerol, 25 mM imidazole, Lysozyme, DNase, and Roche protease inhibitor cocktail). The cells were lysed by pulsed sonication (Qsonica-Q700), and centrifuged at 13,000 rpm for 40 min at 4°C. The soluble extracts were subject to Ni-NTA agarose resin (Thermo) according to manufacturer’s instructions. After passing 20 volumes of washing buffer (50 mM Tris-HCl pH 8.0, 200 mM NaCl, 5 mM β-mercaptoethanol, 10% glycerol, and 25 mM imidazole), proteins were eluted with a buffer containing 50 mM Tris-HCl pH 8.0, 200 mM NaCl, 5 mM β-mercaptoethanol, 10% glycerol, and 400 mM imidazole. Proteins were further purified by size exclusion chromatography (Superdex-200) using AKTA pure FPLC system (GE healthcare) with buffer containing 50 mM Tris-HCl pH 8.0, 200 mM NaCl, and 10% glycerol. Purified proteins were concentrated using Pierce™ Protein Concentrator PES, 10K MWCO, 5-20 mL (Thermo Scientific™ 88527). The protein concentration was determined using Bradford assay kit (BioRad Laboratories) with BSA as a standard. The concentrated proteins were stored at -80 °C before use. […]
(§6) 16. Methylation activity of wild type KMTs on eIF4A3-K374me0/1/2 peptides 20 µM lysine methyltransferase, 10 µM eIF4A3-me0/1/2 peptide and 200 µM SAM were incubated at room temperature for 1-2 hours in 50 mM Tris pH 8.0. Reaction was stopped by storing the microcentrifuge tubes on ice. After mixing, 0.8 µL of sample and 0.8 µL of α-cyano-4-hydroxycinnamic acid (CHCA) (dissolved in 50:50 0.1% TFA and acetonitrile) were combined on a MALDI plate. Samples were ionized using reflectron positive mode on Bruker Daltonics UltrafleXtreme MALDI TOF with detection carried out from 700-3500 m/z. Bruker Flex Analysis software was used to analyze the MALDI-TOF MS spectra.
(§7) 17. Isothermal Titration Calorimetry […]
(§8) The microsyringe (40µL) was loaded with 1.1 mM peptide and injected into the cell (200µL), occupied by CBX1 chromodomain at a concentration of 110 µM. […]

For a further assay, the system named is METTL20. Described as above. Format: biochemical. The conditions noted are these: 20 µM KMT, 10 µM peptide, 200 µM SAM. The method, then:
as §4, §5, §6, §7, §8

In another assay the test system is METTL21A. Described as above. Format: biochemical. The note with it: 20 µM KMT, 10 µM peptide, 200 µM SAM. The method, then:
as §4, §5, §6, §7, §8

A further assay concerns METTL21C. The description is as above. Format: biochemical. The note with it: 20 µM KMT, 10 µM peptide, 200 µM SAM. The method, then:
as §4, §5, §6, §7, §8

Another assay has as its system G9a. Described as above. In kind it is biochemical. The conditions noted are these: 20 µM KMT, 10 µM peptide, 200 µM SAM. The method, then:
(§9) 7. Expression and purification of lysine methyltransferases and Chromodomains […]
as §6, §7
(§10) The microsyringe (40µL) was loaded with 1.1 mM peptide and injected into the cell (200µL), occupied by CBX1 chromodomain at a concentration of 110 µM. Data was fitted to a single binding site model using Microcal ITC200 Software with Origin Lab 7.
(§11) KDM4A mammalian expression plasmid in CMV vector was purchased from Addgene (plasmid #24180). Full-length G9a in pCDNA3 vector was kind from Prof. Minkui Luo at the Memorial Sloan-Kettering Cancer Center. HEK293T/17 cells (ATCC) were grown in a T25 containing Delbucco’s Modified Eagle Medium (DMEM) (Corning) with 10% FBS at 37 °C, 5% CO2, and 95% relative humidity. When cells reached 80% confluency, 5 µg of plasmid and 10 µg

The test system of the next assay is SUV39H2. The description is as above. Format: biochemical. The conditions noted are these: 20 µM KMT, 10 µM peptide, 200 µM SAM. As to the method: as §9, §6, §7, §10, §11
Assay [2] addresses T1, CBX1 chromodomain (Homo sapiens, UniProt P83916).
T1 construct: occupied by CBX1 chromodomain at a concentration of 110 µM; 6xHis (N); made in house
The assay is described as follows: Isothermal titration calorimetry of peptide binding to CBX1 chromodomain. The conditions noted are these: ITC, 25 °C, 1.1 mM peptide into 110 µM CBX1 chromodomain, 50mM Tris pH 8.0. The method, then:
as §9
17. Isothermal Titration Calorimetry
Isothermal titration calorimetry (ITC) was performed with an ITC200 instrument (MicroCal, Malvern). Experiments were conducted at 25 °C while stirring at 750 rpm. Buffers of protein […]
were matched to 200mM NaCl, 10% glycerol, and 50mM Tris pH 8.0. Each titration was performed as follows: one initial injection of 0.4 µL for 0.8 seconds, followed by 19 injections of 2.0 µL for 4 seconds, with ≥2 mins between each injection. The initial injection was discarded prior to data analysis. The microsyringe (40µL) was loaded with 1.1 mM peptide and injected into the cell (200µL), occupied by CBX1 chromodomain at a concentration of 110 µM. Data was fitted to a single binding site model using Microcal ITC200 Software with Origin Lab 7.
as §11
A general note: ITC needs no label: the signal is the heat of the interaction.

Assay [3] deals with T1, CBX1 chromodomain. The assay is described as above. The conditions noted are these: ITC, T 288.15 K in Table S6.
A further assay relates to KDM4E. The assay is described as follows: Demethylase activity of wild type KDM4E on peptide substrates (MALDI-TOF MS). In kind it is biochemical. The conditions noted are these: 10 µM enzyme, 10 µM peptide, 1 mM 2OG, 50 mM Tris pH 8, 37°C, three hours. The method, then:
200 FPLC column. The proteins were concentrated via centrifugation. Protein concentration was determined using Bradford assay.
The N-terminal 6xHis-tagged KDM4E construct for bacterial expression was purchased from Addgene (#38990) and expressed following reported method.8 The wild type KDM4E plasmid was transformed into E. Coli BL21 (DE3) competent cells (Invitrogen) using pNIC28-Bsa4 kanamycin-resistant vector. A single colony was grown overnight at 37 °C in 10 mL of Luria-Bertani (LB) broth in the presence of 50 μg/mL kanamycin and 35 μg/mL chloramphenicol. The culture was diluted 100-fold and allowed to grow at 37 °C to an optical density (OD600) of 0.8, and protein expression was induced overnight at 17 °C with 1 mM IPTG in an Innova 44® Incubator shaker (New Brunswick Scientific). KDM4E was purified from pelleted cells by resuspending in lysis buffer (50 mM Tris-HCl pH 8.0, 200 mM NaCl, 5 mM β-ME, 10% glycerol, 25 mM imidazole, lysozyme, DNase, and Pierce protease inhibitor cocktail). The cells were lysed by sonication at 60 mA, 10 seconds on followed by 10 seconds off, for a total of 2 minutes. The cell debris was pelleted at 13,000 rpm for 40 minutes. The soluble cell extracts were incubated with Ni-NTA agarose resin (Thermo) according to manufactures protocol. […] Bradford Dye (BioRad) was used to quantify the protein concentration using BSA as a standard. […]

T1 sequence (P83916 21-79 limits assumed): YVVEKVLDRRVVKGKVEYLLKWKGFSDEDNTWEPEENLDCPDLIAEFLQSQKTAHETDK

As for “(5/6)-TA M R A-GGARTKQTARKme3STGGKAPR [compound 6, tetramethylrhodamine (TAMRA)-attached H3K9me3 peptide]”, the “crosslinking with KDM4C-I73AzF” value in the assay with KDM4C-I73AzF was “successful crosslinking”. Moreover, the “crosslinking with KDM4D-L75AzF” value in the assay on KDM4D-L75AzF is given as “successful crosslinking”. Also, the “crosslinking with catalytically dead AzF variants” value in assay [1] was “ineffective to trap the substrate”. For the same substance, the “crosslinking with wild-type KDM4A” value in the assay with wild-type KDM4A is reported as “failed to undergo crosslinking”. The “crosslinking with KDM4A-I71AzF” value with KDM4A-I71AzF (10 µM peptide, 20 µM protein, 365 nm UV, 30 minutes at 4 °C) is listed as “robust crosslinking”. Further, the “crosslinking without UV exposure (control)” value in the assay on KDM4A-I71AzF (kept in dark on ice 30 minutes) is on record as “no fluorescence band was detected”. The “crosslinking with KDM4E-L72AzF” value in the assay with KDM4E-L72AzF is “successful crosslinking”.

Consider “GRSGRYGRKGVAINFVK [compound 21, eIF4A3-K374me0 peptide]”, for which the “methylation by DOT1L (in words)” value with DOT1L was “failed to methylate”. In the assay with METTL20, the “methylation by METTL20 (in words)” value is recorded as “failed to methylate”. The “methylation by METTL21A (in words)” value with METTL21A was “failed to methylate”. Besides, the “methylation by METTL21C (in words)” value with METTL21C is listed as “failed to methylate”. In addition, the “methylation by G9a (in words)” value in the assay with G9a was “also methylated eIF4A3-K374me0; also recorded: di- and trimethylation”. The “methylation by SUV39H2 (in words)” value in the assay with SUV39H2 is recorded as “also methylated eIF4A3-K374me0; also recorded: monomethylated”. In addition, the “binding to CBX1 chromodomain (in words)” value at CBX1 chromodomain [2] is reported as “no detectable interaction”. On CBX1 chromodomain [3], this substance yielded a TΔS of 0 kcal/mol, a ΔG of 0 kcal/mol, a ΔH of 0 kcal/mol and a ΔS of 0 cal/mol/degree.

“NTKRESGR[Lys(Me3)]VQSGNINA [compound 15, TCPG-K21me3 peptide]”: the “demethylation by KDM4E” value in the assay on KDM4E is “marginally demethylated only by KDM4E”.
